Consider 19 compounds from ChEMBL document CHEMBL4346687, “Design, synthesis and biological evaluation of novel uracil derivatives bearing 1, 2, 3-triazole moiety as thymidylate synthase (TS) inhibitors and as potential antitumor drugs” (Eur J Med Chem, 2019).

In general, IC50 refers to the midpoint of a concentration-inhibition curve. Read a low IC50 as greater potency. In general, CC50 refers to the concentration at which the toxic effect on the cells reaches its halfway point.

One series relates to OVCAR-3. The series is described as follows: cells. Particulars: Homo sapiens, OVCAR-3, 24 h.
The subject of another series is HepG2. The series is described as follows: cells. Conditions: Homo sapiens, HepG2, 24 h.
Series [1] can be described thus: Cytotoxicity against human IOSE-80 cells assessed as reduction in cell viability after 24 hrs by MTT assay. The series is classed as cell-based. Conditions: for CC50: 24 h; for CC50 at 24 h: IOSE-80 cells. (Formazan colour is commonly taken as a measure of viable cells.)
Series [2] is described as follows: (§1) Cytotoxicity against human GES-1 cells assessed as reduction in cell viability after 24 hrs by MTT assay. The series is classed as cell-based, GES1. Particulars: GES-1 cells.
Series [3] is described as follows: Cytotoxicity against human HPAEpic cells assessed as reduction in cell viability after 24 hrs by MTT assay. The series is classed as cell-based. Particulars: for CC50 at 24 h: HPAEpic cells; for CC50: 24 h.
The test system of another series is L02. The series can be described thus: (§2) Cytotoxicity against human L02 cells assessed as reduction in cell viability after 24 hrs by MTT assay. The series is classed as cell-based. Particulars: l02, 24 h.
The next series has as its system SGC-7901. The series is described as follows: cells. Conditions: Homo sapiens, SGC-7901, 24 h.
Another series relates to A549. The series is described as follows: cells. Particulars: Homo sapiens, A549, 24 h.
In a further series the test system is GES1. Described as §1. Particulars: ges1, 24 h. The series is classed as cell-based.
The nature of series [4]: as §2. The series is classed as cell-based. Conditions: L02 cells.

Each structure is given as a SMILES string.

Description for A549: Antiproliferative activity against human A549 cells assessed as reduction in cell viability after 24 hrs by MTT assay
Description for HepG2: Antiproliferative activity against human HepG2 cells assessed as reduction in cell viability after 24 hrs by MTT assay
Description for OVCAR-3: Antiproliferative activity against human OVCAR3 cells assessed as reduction in cell viability after 24 hrs by MTT assay
Description for SGC-7901: Antiproliferative activity against human SGC7901 cells assessed as reduction in cell viability after 24 hrs by MTT assay

On to `O=c1[nH]cc(S(=O)(=O)Nc2ccc(-c3cn(-c4ccc(F)cc4)nn3)cc2)c(=O)[nH]1`, for which the IC50 in the series with OVCAR-3 was greater than 20 µM; in the series with HepG2 it was greater than 20 µM; in the series with SGC-7901, greater than 20 µM; with A549, 9.72 µM. Also, the CC50 result (in series [1]; in the series with L02) was “Non-Toxic” throughout. Further, the cytotoxic concentration (CC50) at 24 h in [2] and in [3] was greater than 100 µM each time.
Regarding `O=c1[nH]cc(S(=O)(=O)Nc2cccc(-c3cn(-c4ccc(F)cc4)nn3)c2)c(=O)[nH]1`, the IC50 in the series on OVCAR-3, with HepG2, in the series on SGC-7901 and in the series on A549 was greater than 20 µM each time. Besides, the CC50 entry (in series [1]; with GES1; in series [3]; in the series on L02) was “Non-Toxic” throughout.
Take `O=c1[nH]cc(S(=O)(=O)Nc2ccc(-c3cn(-c4ccccc4)nn3)cc2)c(=O)[nH]1`: the IC50 was found to be 18 µM in the series on OVCAR-3, 18 µM with HepG2, 18.8 µM with SGC-7901 and 7.17 µM in the series with A549. Besides, the CC50 entry (in series [1]; in the series on GES1; in series [3]; in the series on L02) was “Non-Toxic” each time.
Consider `O=c1[nH]cc(S(=O)(=O)Nc2ccc(-c3cn(-c4cccc(F)c4)nn3)cc2)c(=O)[nH]1`, for which the IC50 in the series on OVCAR-3 is greater than 20 µM; in the series with HepG2 it was greater than 20 µM; in the series on SGC-7901 it was greater than 20 µM; with A549, 9.98 µM. Also, the CC50 result (in series [1]; in the series with GES1; in [3]; with L02) was “Non-Toxic” in each case.
`O=c1[nH]cc(S(=O)(=O)Nc2cccc(-c3cn(-c4cccc(F)c4)nn3)c2)c(=O)[nH]1`: the IC50 was greater than 20 µM with OVCAR-3, greater than 20 µM in the series with HepG2, greater than 20 µM in the series on SGC-7901 and 7.2 µM in the series with A549. Further, the CC50 entry (in series [1]; in the series with GES1; in series [3]; in the series with L02) was “Non-Toxic” in each case.
Consider `O=c1[nH]cc(S(=O)(=O)Nc2ccccc2-c2cn(-c3ccc(F)cc3)nn2)c(=O)[nH]1`, for which the IC50 in the series with OVCAR-3 was greater than 20 µM; in the series on HepG2 it was greater than 20 µM; with SGC-7901 it was greater than 20 µM; with A549, 6.39 µM. Also, the CC50 result (in series [1]; in the series with GES1; in series [3]; with L02) was “Non-Toxic” in each case.
As to `O=c1[nH]cc(S(=O)(=O)Nc2cccc(-c3cn(-c4ccccc4F)nn3)c2)c(=O)[nH]1`, the IC50 in the series with OVCAR-3 is 12.5 µM; with HepG2, 13.9 µM; with SGC-7901, 16 µM; in the series with A549, greater than 20 µM. Also, the CC50 entry (in series [1]; in the series on GES1; in [3]; in the series with L02) was “Non-Toxic” each time.
On to `Cc1ccc(-n2cc(-c3ccc(NS(=O)(=O)c4c[nH]c(=O)[nH]c4=O)cc3)nn2)cc1`, for which the IC50 with OVCAR-3 stood at 5.63 µM; in the series with HepG2 it was 11.6 µM; in the series on SGC-7901 it was 8.35 µM; in the series on A549 it was 5.56 µM. The CC50 at 24 h in series [1] was 30.5 µM; in series [3] it was 29.1 µM. In addition, the CC50 entry in the series with GES1 and in the series with L02 was “Non-Toxic” throughout.
As for `O=c1[nH]cc(S(=O)(=O)Nc2ccccc2-c2cn(-c3cccc(F)c3)nn2)c(=O)[nH]1`, the IC50 was greater than 20 µM with OVCAR-3, greater than 20 µM with HepG2, greater than 20 µM with SGC-7901 and 8.13 µM with A549. Besides, the CC50 result (in [1]; in the series with GES1; in the series on L02) was “Non-Toxic” each time. Further, in series [3], the CC50 at 24 h was greater than 100 µM.
As to `Cc1cccc(-n2cc(-c3ccc(NS(=O)(=O)c4c[nH]c(=O)[nH]c4=O)cc3)nn2)c1`, the IC50 is 7.49 µM with OVCAR-3, greater than 20 µM in the series with HepG2, 17.4 µM with SGC-7901 and 6.96 µM in the series on A549. Also, the CC50 at 24 h in [1] is 29.3 µM; in [2] it was 28.3 µM; in series [3], 31.3 µM; in [4], 39 µM.
With `Cc1cccc(-n2cc(-c3cccc(NS(=O)(=O)c4c[nH]c(=O)[nH]c4=O)c3)nn2)c1`, the IC50 came to 4.08 µM with OVCAR-3, 7.05 µM with HepG2, 9.1 µM in the series with SGC-7901 and 3.55 µM in the series on A549. Further, the CC50 at 24 h in series [1] turned out to be 23.4 µM; in [2] it was 18.5 µM; in series [3], 23.7 µM; in [4], 28.3 µM.
Consider `O=c1[nH]cc(S(=O)(=O)Nc2ccc(-c3cn(-c4ccccc4F)nn3)cc2)c(=O)[nH]1`, for which the IC50 was 8.03 µM in the series on OVCAR-3, greater than 20 µM in the series with HepG2, 7.27 µM with SGC-7901 and 5.96 µM with A549. Further, the CC50 at 24 h in series [1] is greater than 100 µM; in [2] it was greater than 100 µM; in [3], 32.6 µM; in series [4], greater than 100 µM.
On to `O=c1[nH]cc(S(=O)(=O)Nc2ccccc2-c2cn(-c3ccccc3Cl)nn2)c(=O)[nH]1`, for which the IC50 is 3.17 µM in the series with OVCAR-3, 2.24 µM with HepG2, 6.52 µM in the series on SGC-7901 and 2.74 µM in the series with A549. Besides, the CC50 at 24 h came to 11.2 µM in [1], 20.8 µM in series [2], 17.7 µM in series [3] and 22.8 µM in [4].
Consider `Cc1ccc(-n2cc(-c3cccc(NS(=O)(=O)c4c[nH]c(=O)[nH]c4=O)c3)nn2)cc1`, for which the IC50 in the series with OVCAR-3 is 3.54 µM; in the series on HepG2, greater than 20 µM; in the series with SGC-7901, 9.43 µM; with A549, 3.63 µM. For the same compound, the CC50 at 24 h in series [1] is 12.8 µM; in series [2], 15.8 µM; in series [3] it was 10.6 µM; in series [4], 23.1 µM.
Consider `Cc1ccccc1-n1cc(-c2cccc(NS(=O)(=O)c3c[nH]c(=O)[nH]c3=O)c2)nn1`, for which the IC50 with OVCAR-3 came out at 6.23 µM; in the series with HepG2, 9.57 µM; in the series with SGC-7901 it was 9.23 µM; in the series with A549 it was 5.47 µM. In addition, the CC50 at 24 h in [1] was 36.4 µM; in series [2], 21.5 µM; in [3], 10.2 µM; in series [4] it was 15.3 µM.
As for `O=c1[nH]cc(S(=O)(=O)Nc2cccc(-c3cn(-c4cccc(Cl)c4)nn3)c2)c(=O)[nH]1`, the IC50 was 3.41 µM in the series on OVCAR-3, 4.2 µM with HepG2, 3.95 µM in the series with SGC-7901 and 2.43 µM with A549. Besides, the CC50 at 24 h in series [1] amounted to 18.9 µM; in [2] it was 26.2 µM; in series [3], 10.2 µM; in series [4] it was 8.33 µM.
For `O=c1[nH]cc(S(=O)(=O)Nc2ccccc2-c2cn(-c3cccc(Cl)c3)nn2)c(=O)[nH]1`, the IC50 is 2.18 µM in the series on OVCAR-3, 2.46 µM in the series on HepG2, 2.27 µM in the series on SGC-7901 and 2.34 µM with A549. Further, the CC50 at 24 h in [1], in series [2], in series [3] and in series [4] was greater than 100 µM each time.
For the compound `O=c1[nH]cc(S(=O)(=O)Nc2cccc(-c3cn(-c4ccccc4)nn3)c2)c(=O)[nH]1`, the IC50 in the series on OVCAR-3 was greater than 20 µM; in the series on HepG2 it was 11.2 µM; in the series with SGC-7901, 17.2 µM; with A549, 12.7 µM. In [1], the CC50 entry is given as “Non-Toxic”. In addition, the CC50 at 24 h in series [2] was 22.5 µM; in [3], 41.5 µM; in [4], greater than 100 µM.
For the compound `Cc1ccccc1-n1cc(-c2ccc(NS(=O)(=O)c3c[nH]c(=O)[nH]c3=O)cc2)nn1`, the IC50 with OVCAR-3 is 7.31 µM; in the series on HepG2, 14.5 µM; in the series with SGC-7901 it was 13.6 µM; in the series on A549, 3.13 µM. The CC50 result (in series [1]; in the series with GES1; in series [3]; in the series with L02) was “Non-Toxic” throughout.
